Experimental data reported in publication PMC5343495 (Scientific Reports, 2017).
Entries after “also recorded” stand apart in the source; their conditions may differ. Where two headings read alike, the source gives them in different places. Each block holds one compound with its values, some of them ahead of it.

Assays:
[1] = molecular target: T1, Thrombin from human plasma (Homo sapiens, UniProt P00734); test: SPR binding affinity measurement (Biacore T200, thrombin-immobilized CM5 chip)
T1 construct: Thrombin, a multifunctional serine protease generated by prothrombin cleavage; purchased Sigma-Aldrich Chemical Co. (St. Louis, MO, USA) T6884; host or cells: human plasma
Experimental: SPR binding studies were performed using a Biacore T200 biosensor system (GE Healthcare, Uppsala, Sweden).
Thrombin was diluted in 10 mM sodium acetate buffer at pH 5.0 and immobilized on a CM5 chip using an amine coupling kit. […] A total of 8419 RU of immobilized proteins was obtained. Sensor preparation and interaction analyses were performed at 25 °C in a PBS-P [10 mM phosphate buffer, 137 mM NaCl, 2.7 mM KCl, 0.05% P20 (pH 7.4)] running buffer containing 5% DMSO.
Solvent-correction procedures were included to compensate for any DMSO-related bulk refractive index variations. Reference flow cell without immobilized thrombin served as a non-specific binding control. Biacore traces were baseline subtracted and the signal was presented in sensorgrams and measured in RU. […] Equilibrium constants (KD) were calculated using the ‘affinity’ model in Biacore T200 evaluation software version 2.0.

thrombin [2] = molecular target: T2, thrombin (Homo sapiens, UniProt P00734); design: method as in PMID 12646027, PMID 19674897, PMID 18674905, PMID 18289852, PMID 18052026; conditions: training set for pharmacophore generation; cited from earlier work
T2 construct: Thrombin, a multifunctional serine protease generated by prothrombin cleavage; purchased AnaSpec, Inc., San Jose, CA

thrombin [3] = molecular target: T2, thrombin; test: Thrombin inhibition assay (SensoLyte 520 FRET substrate kit); format: biochemical; conditions: read-out: inhibition relative to the positive control
Experimental: To evaluate the thrombin-inhibitory activity of the hits, a fluorescence assay utilizing a SensoLyte 520 Thrombin Activity Assay Kit (AnaSpec, Inc., San Jose, CA) was performed following the manufacturer’s instructions. This kit contained a novel 5-FAM/QXL 520 (fluorophore/quencher pair) FRET modified substrate (approximately 6 amino acids) that can be cleaved by thrombin at the Arg-Gly (R-G) site. The FRET substrate can be cleaved into two separate fragments, resulting in the release of 5-FAM fluorescence, which can be monitored at an excitation/emission = 490 nm/520 nm[37]. […]
Ten microlitres of compound solution (300 μM in assay buffer) and 40 μL thrombin solution (0.33 μg/ml in assay buffer) were sequentially added to each well of a black, flat- bottom, non-binding 96-well plate (Corning #3650, Corning, NY). […] After incubation, the fluorescence (excitation 490 nm, emission 520 nm) of each mixture was detected with a 2104 EnVision Multilabel Reader (PerkinElmer).
For enzymatic reaction, the thrombin solution treated with vehicle buffer alone was used as negative control. […] All fluorescence readings are taken into account in relative fluorescence units (RFU). The experimental data were analyzed by GraphPad Prism software (version 5, Graphpad Software Incorporation, USA).

HEK293 cells = test: Luciferase-coupled ATP quantitative assay (CellTiter-Glo cytotoxicity); format: cell-based; conditions: incubation 24, 48 or 72 hours
Experimental: HEK293 cells were seeded at 5.0 × 10^3 per well into 96-well clear-bottom black plates and incubated in 5% CO2 at 37 °C overnight. […] Luminescence was determined with an Envision 2100 multilabel reader to detect viability following incubation with CellTiter-Glo reagent for 15 min.

[4] = molecular target: T1, Thrombin from human plasma; test: SPR competitive binding assay of BBR with argatroban (ABA method, Biacore S200); conditions: 300 μM BBR; 30, 60 or 120 μM argatroban
Experimental: The response units were measured before the end of injection.

washed platelets = test: Inhibition of thrombin-induced platelet aggregation (turbidimetric method); format: cell-based, rabbits; conditions: BBR 0.83, 2.50 and 7.50 μM, 5 min at 37 °C, 0.5 U/ml thrombin
Experimental: PRP was obtained by centrifugation of collected blood at 190 g for 10 min. The platelets were isolated from PRP by centrifugation for 10 min at 650 g, resuspended and washed twice in Ca^2+-free Tyrode’s buffer (138 mM NaCl, 2.68 mM KCI, 11.9 mM NaHCO3, 0.36 mM NaH2PO4, 0.49 mM MgSO4, 5.5 mM glucose, pH7.5)[42]. Washed platelets were then resuspended in Tyrode’s buffer including 1.8 mM CaCl2 at a density of 2 × 10^7 platelets/ml.
Aggregation was initiated by the addition of 10 μL of thrombin (final concentrations of 0.5 U/ml). Aggregation was recorded at 37 °C for 5 min using a four-channel platelet aggregation analyser (LBY-NJ4, Beijing Precil Instrument Co., Ltd., China). Platelet aggregation inhibitory percentage was calculated using the following equation: Inhibitory percentage (%) = (1 − At/A0) × 100%. At is the platelet aggregation percentage of the test sample, and A0 is the platelet aggregation percentage of the control sample.

[5] = Table 2, SPR, immobilized thrombin, read-out: KD

Kd [1, 5]: > 200 µM
SMILES: O=C1c2ccccc2C(=O)c2c(O)c(O)cc(O)c21 [Hydroxyalizarin, reference compound]

Kd [1, 5]: > 200 µM
SMILES: CC1(C)CCC[C@](C)([C@H]2CC[C@]3(C)[C@@H]2[C@H](O)C[C@@H]2[C@@]4(C)CC[C@H](O)C(C)(C)[C@@H]4[C@@H](O)C[C@]23C)O1 [Panaxatriol]

inhibition at 30 µM (thrombin [3]): ≥ 50%
SMILES: COc1ccc2cc3[n+](cc2c1OC)CCc1cc2c(cc1-3)OCO2 [BBR, Berberine]
cytotoxicity (HEK293 cells): no significant cytotoxicity; also recorded: without cytotoxicity
competitive binding with argatroban to thrombin [4]: could bind to the same argartroban/thrombin interaction site
effect on thrombin-induced platelet aggregation (washed platelets): had the ability to inhibit thrombin-induced platelet aggregation; also recorded: significantly prevented platelet aggregation

The next lines start with the compound.

SMILES: O=C(O)c1cc(O)c(O)c(O)c1 [Gallic acid]
Kd [1]: > 200 µM

SMILES: NC1CCC(CNC(=O)C2CCCN2C(=O)C(N)C(c2ccccc2)c2ccccc2)CC1 (centres unmarked) [CHEMBL269744]
IC50 (thrombin [2]): 0.0001 µM
